# Assay results: patent US10377770B2 (Novartis AG, priority 2015, dated 2019)
# Molecular target: C-Raf FL (full length CRAF with Y340E and Y341E activating mutations, co-expressed with h14-3-3 zeta) (Homo sapiens (Human), UniProt P04049, Y340E/Y341E)
# Assay: In vitro Raf activity determination, AlphaScreen p-MEK readout, c-Raf (C-Raf FL)
# Assay type: biochemical
# Settings: c-Raf approximately 4 nM, ATP 1 μM, pre-incubation 60 minutes, reaction 1 hour
# Procedure, shortened: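 Phosphorylation of kinase-dead biotinylated MEK1 (~10 nM) by C-Raf FL (~4 nM) read by AlphaScreen luminescence with anti-phospho-MEK1/2 after EDTA stop. ATP was 1 μM, with a 1 h reaction at room temperature. Compounds were pre-incubated with enzyme and substrate for 60 min in Tris/MgCl2 buffer, pH 7.5.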
row,Compound,IC50 [nM]
1,"CCN1C[C@@H]2CCOCCN2c2cc(-c3cc(NC(=O)c4cccc(C(F)(F)F)c4)cnc3C)cnc2C1=O [Example 506, (S)-N-(5-(7-ethyl-8-oxo-1,2,4,5,5a,6,7,8-octahydropyrido[2′, 3′:6,7][1,4]diazepino [1,2-d][1,4]oxazepin-11-yl)-6-methylpyridin-3-yl)-3-(trifluorometh-yl)benzamide]",80.3
2,"CCN1C[C@H]2CCOCCN2c2cc(-c3cc(NC(=O)c4cccc(C(F)(F)F)c4)cnc3C)cnc2C1=O [Example 507, (R)-N-(5-(7-ethyl-8-oxo-1,2,4,5,5a,6,7,8-octahydropyrido[2′, 3′:6,7][1,4]diazepino [1,2-d][1,4]oxazepin-11-yl)-6-methylpyridin-3-yl)-3-(trifluorometh-yl)benzamide]",26.9
3,"Cc1ccc(NC(=O)c2ccnc(C(F)(F)F)c2)cc1-c1cnc2c(c1)N1CCOC[C@H]1C[C@H]2OCCO [Example 508, N-(3-((4aR,6R)-6-(2-hydroxyethoxy)-1,2,4,4a,5,6-hexahydro-[1,4]oxazino[4,3-a][1,5]naphthyridin-9-yl)-4-methylphenyl)-2-(trifluoromethyl)iso-nicotinamide]",0.2
4,"Cc1ccc(NC(=O)c2ccnc(C(F)(F)F)c2)cc1-c1cnc2c(c1)N1CCOC[C@@H]1C[C@@H]2OCCO [Example 509, N-(3-((4aS,6S)-6-(2-hydroxyethoxy)-1,2,4,4a,5,6-hexahydro-[1,4]oxazino[4,3-a][1,5]naphthyridin-9-yl)-4-methylphenyl)-2-(trifluorometh-yl)isonicotinamide]",0.2
5,"Cc1ccc(NC(=O)c2ccnc(C(F)(F)F)c2F)cc1-c1cnc2c(c1)N1CCOC[C@H]1C[C@H]2OCCO [Example 510, 3-fluoro-N-(3-((4aR,6R)-6-(2-hydroxyethoxy)-1,2,4,4a,5,6-hexahydro-[1,4]oxazino[4,3-a][1,5]naphthyridin-9-yl)-4-methylphenyl)-2-(trifluoromethyl)iso-nicotinamide]",0.1
6,"Cc1ccc(NC(=O)c2ccnc(C(C)(C)F)c2)cc1-c1cnc2c(c1)N1CCOC[C@H]1C[C@H]2OCCO [Example 511, 2-(2-fluoropropan-2-yl)-N-(3-((4aR,6R)-6-(2-hydroxyethoxy)-1,2,4,4a,5,6-hexahydro-[1,4]oxazino[4,3-a][1,5]naphthyridin-9-yl)-4-methylphenyl)iso-nicotinamide]",0.2
7,"Cc1ccc(NC(=O)c2cnnc(C(F)(F)F)c2)cc1-c1cnc2c(c1)N1CCOC[C@H]1C[C@H]2OCCO [Example 512, N-(3-((4aR,6R)-6-(2-hydroxyethoxy)-1,2,4,4a,5,6-hexahydro-[1,4]oxazino[4,3-a][1,5]naphthyridin-9-yl)-4-methylphenyl)-6-(trifluorometh-yl)pyridazine-4-carboxamide]",0.4
8,"Cc1ccc(NC(=O)c2ccnc(C(C)(F)F)c2)cc1-c1cnc2c(c1)N1CCOC[C@H]1C[C@H]2OCCO [Example 513, 2-(1,1-difluoroethyl)-N-(3-((4aR,6R)-6-(2-hydroxyethoxy)-1,2,4,4a,5,6-hexahydro-[1,4]oxazino[4,3-a][1,5]naphthyridin-9-yl)-4-methylphenyl)iso-nicotinamide]",0.1
9,"Cc1ncc(NC(=O)c2cccc(C(F)(F)F)c2)cc1-c1cnc2c(c1)N1CCOC[C@H]1C[C@H]2OCCO [Example 514, N-(5-((4aR,6R)-6-(2-hydroxyethoxy)-1,2,4,4a,5,6-hexahydro-[1,4]oxazino[4,3-a][1,5]naphthyridin-9-yl)-6-methylpyridin-3-yl)-3-(trifluorometh-yl)benzamide]",0.4
10,"Cc1ccc(NC(=O)c2ccnc(C(C)(F)F)c2)cc1-c1cnc2c(c1)N1CCOC[C@H]1[C@@](C#N)(CF)C2 [Example 515, N-(3-((4aR,5S)-5-cyano-5-(fluoromethyl)-1,2,4,4a,5,6-hexahydro-[1,4]oxazino[4,3-a][1,5]naphthyridin-9-yl)-4-methylphenyl)-2-(1,1-difluoroethyl)iso-nicotinamide]",0.1
11,"Cc1ccc(NC(=O)c2ccnc(C(C)(F)F)c2)cc1-c1cnc2c(c1)N1CCOC[C@@H]1[C@](C#N)(CF)C2 [Example 516, N-(3-((4aS,5R)-5-cyano-5-(fluoromethyl)-1,2,4,4a,5,6-hexahydro-[1,4]oxazino[4,3-a][1,5]naphthyridin-9-yl)-4-methylphenyl)-2-(1,1-difluoroethyl)iso-nicotinamide]",0.1
12,"Cc1ccc(NC(=O)c2ccnc(C(C)(F)F)c2)cc1-c1cnc2c(c1)N1CCOC[C@@H]1[C@@](C#N)(CF)C2 [Example 517, N-(3-((4aS,5S)-5-cyano-5-(fluoromethyl)-1,2,4,4a,5,6-hexahydro-[1,4]oxazino[4,3-a][1,5]naphthyridin-9-yl)-4-methyphenyl)-2-(1,1-difluoroethyl)iso-nicotinamide]",0.1
13,"Cc1ccc(NC(=O)c2ccnc(C(C)(F)F)c2)cc1-c1cnc2c(c1)N1CCOC[C@H]1[C@](C#N)(CF)C2 [Example 518, N-(3-((4aR,5R)-5-cyano-5-(fluoromethyl)-1,2,4,4a,5,6-hexahydro-[1,4]oxazino[4,3-a][1,5]naphthyridin-9-yl)-4-methyphenyl)-2-(1,1-difluoroethyl)iso-nicotinamide]",0.1
14,Cc1ccc(NC(=O)c2ccnc(C(F)(F)F)c2)cc1-c1cnc2c(c1)N1CCOC[C@H]1[C@@](C#N)(CF)C2 [Example 520],0.1
15,"Cc1ccc(NC(=O)c2ccnc(C(F)(F)F)c2)cc1-c1cnc2c(c1)N1CCOC[C@H]1C[C@@H]2C [Example 521, N-(4-methyl-3-((4aR,6S)-6-methyl-1,2,4,4a,5,6-hexahydro-[1,4]oxazino[4,3-a][1,5]naph-thyridin-9-yl)phenyl)-2-(trifluoromethyl)iso-nicotinamide]",0.5
16,"Cc1ccc(NC(=O)c2ccnc(C(F)(F)F)c2)cc1-c1cnc2c(c1)N1CCOC[C@H]1C[C@H]2C [Example 522, N-(4-methyl-3-((4aR,6R)-6-methyl-1,2,4,4a,5,6-hexahydro-[1,4]oxazino[4,3-a][1,5]naph-thyridin-9-yl)phenyl)-2-(trifluoromethyl)iso-nicotinamide]",0.1
17,"Cc1ccc(NC(=O)c2ccnc(C(C)(C)F)c2)cc1-c1ccc2c(c1)N1CCOC[C@H]1[C@](F)(CN)C2 [Example 525, N-(3-((4aS,5R)-5-(aminomethyl)-5-fluoro-1,2,4,4a,5,6-hexahydro-[1,4]oxazino[4,3-a]quinolin-9-yl)-4-methylphenyl)-2-(2-fluoropropan-2-yl)isonicotinamide]",1.5
18,"Cc1ncc(NC(=O)c2cccc(C(F)(F)F)c2)cc1-c1ccc2c(c1)N1CCOC[C@H]1[C@](F)(CN)C2 [Example 526, N-(5-((4aS,5R)-5-(aminomethyl)-5-fluoro-1,2,4,4a,5,6-hexahydro-[1,4]oxazino[4,3-a]quinolin-9-yl)-6-methylpyridin-3-yl)-3-(trifluoromethyl)benzamide]",2.6
19,Cc1ccc(NC(=O)c2ccnc(C(F)(F)F)c2)cc1-c1cnc2c(c1)N1CCOC[C@H]1C(C)(C)[C@H]2N [Example 527],0.9
20,Cc1ccc(NC(=O)c2ccnc(C(F)(F)F)c2)cc1-c1ccc2c(c1)N1CCOCC[C@H]1C(F)(F)[C@H]2O [Example 528],0.7
21,"CC(=O)N[C@H]1c2ncc(-c3cc(NC(=O)c4ccnc(C(F)(F)F)c4)ccc3C)cc2N2CCOC[C@H]2C1(C)C [Example 529, N-(3-((4aR,6R)-6-acetamido-5,5-dimethyl-1,2,4,4a,5,6-hexahydro-[1,4]oxazino[4,3-a][1,5]naphthyridin-9-yl)-4-methylphenyl)-2-(trifluoromethyl)isonicotinamide]",2.3
22,"CNC[C@@H]1Cc2ncc(-c3cc(NC(=O)c4ccnc(C(F)(F)F)c4)ccc3C)cc2N2CCOC[C@@H]12 [Example 530, N-(4-methyl-3-((4aR,5S)-5-((methylamino)meth-yl)-1,2,4,4a,5,6-hexahydro-[1,4]oxazino[4,3-a][1,5]naphthyridin-9-yl)phenyl)-2-(trifluoromethyl)iso-nicotinamide]",0.4
23,"CNC[C@H]1Cc2ncc(-c3cc(NC(=O)c4ccnc(C(F)(F)F)c4)ccc3C)cc2N2CCOC[C@H]12 [Example 531, N-(4-methyl-3-((4aS,5R)-5-((methylamino)meth-yl)-1,2,4,4a,5,6-hexahydro-[1,4]oxazino[4,3-a][1,5]naphthyridin-9-yl)phenyl)-2-(trifluoromethyl)iso-nicotinamide]",0.2
24,"CC[C@@H]1Oc2nnc(-c3cc(NC(=O)c4ccnc(C(C)(F)F)c4)ccc3C)cc2N2CCOC[C@H]12 [Example 532, 2-(1,1-Difluoroethyl)-N-(3-((6S,6aR)-6-ethyl-6a,7,9,10-tetrahydro-6H-[1,4]oxazino[4,3-d]pyridazino[3,4-b][1,4]oxazin-2-yl)-4-methylphenyl)isonicotinamide]",0.2
25,"CC[C@H]1Oc2nnc(-c3cc(NC(=O)c4ccnc(C(C)(F)F)c4)ccc3C)cc2N2CCOC[C@H]12 [Example 533, 2-(1,1-difluoroethyl)-N-(3-((6R,6aR)-6-ethyl-6a,7,9,10-tetrahydro-6H-[1,4]oxazino[4,3-d]pyridazino[3,4-b][1,4]oxazin-2-yl)-4-methylphenyl)isonicotinamide]",0.1
26,"CC[C@@H]1Oc2nnc(-c3cc(NC(=O)c4ccnc(C(C)(F)F)c4)ccc3C)cc2N2CCOC[C@@H]12 [Example 534, 2-(1,1-difluoroethyl)-N-(3-((6S,6aS)-6-ethyl-6a,7,9,10-tetrahydro-6H-[1,4]oxazino[4,3-d]pyridazino[3,4-b][1,4]oxazin-2-yl)-4-methylphenyl)isonicotinamide]",0.1
27,"(R)-2-(1,1- difluoroethyl)-3- fluoro-N-(3-(7-(2- hydroxyethyl)-6- oxo-2,4,4a,5,6,7- hexahydro-1H- [1,4]oxazino[4,3- d]pyrido[2,3- b][1,4]diazepin-10- yl)-4- methylphenyl) isonicotinamide [Example 308]",0.7
